Measured values reported in patent publication US11999676B2, “Vesicular monoamine transporter-2 ligands and their use in the treatment of psychostimulant abuse” (priority 2016, dated 2024).

Tests used:
[1] = Microsomal stability assay, rat liver microsomes; settings: for CLint scaled at 0.08 µM / half-life at 0.08 µM: female, Sprague-Dawley, rat, liver microsomes; for CLint scaled at 0.08 µM: pH 7.4, Microsomal stability assays: Clearance; for half-life at 0.08 µM: pH 7.4, Microsomal stability assays: Half-life
[2] = biological target: hERG channel (Homo sapiens (Human), UniProt Q12809); test: [3H]Dofetilide binding assay, HEK-293 cell membrane preparation; settings: [3H]dofetilide, HEK-293 cell membranes; read-out: hERG Binding: Mean Ki ± Standard Deviation
Method: [^3H]Dofetilide binding assays were conducted using commercially available HEK-293 cell membranes which stably express the hERG channel. Membranes were suspended in assay buffer (50 mM Tris, 10 mM KCl, 1 mM MgCl2, pH 7.4) prior to the experiment. […] Aliquots of the HEK-293 cell membrane suspension which contained 5 μg membrane protein were added to tubes containing assay buffer, 5 nM [^3H]dofetilide and a range of concentrations of analog (10 nM-100 μM). Nonspecific binding was determined in the presence of amitriptyline (1 mM). Samples were incubated for 1 hr. at 24° C., followed by rapid filtration. […] The affinity for the [^3H]dofetilide binding site on the hERG channel expressed in the HEK-293 cellular membrane was determined from the analog concentration response curves.

[3] = biological target: VMAT2 (Rattus norvegicus (Rat), UniProt Q01827); test: [3H]Dopamine ([3H]DA) uptake assay, vesicular preparation; assay type: biochemical; settings: [3H]DA uptake, rat; read-out: VMAT2 (rat) Inhibition: Mean Ki ± Standard Deviation
[4] = Microsomal stability assay, human liver microsomes; settings: for CLint scaled at 0.08 µM: both, human, pooled liver microsomes, pH 7.4, Microsomal stability assays: Clearance
Method: Each plate holds triplicate samples of two controls (0.4 mM) and up to 14 compounds (0.08 mM) in rat and human liver microsomes. Aliquots of each well of the plate (175 μl of each well) were transferred from the master plate into 5 assay plates. For 0-hr time point, pre-cooled (4° C.) internal standard (437.5 μL, 2 μM caffeine in methanol) was added to the first plate before the reaction starts. NADPH regenerating system solution A (6.05 ml, Fisher Scientific, #NC9255727) was combined with NADPH regenerating system solution B (1.21 ml, Fisher Scientific, #NC9016235) in potassium phosphate buffer (15.8 ml, 0.1 M, pH 7.4, 37° C.). The resulting NADPH solution (43.8 μl) was added to each well of all the 96-well assay plates and mixed with pipette briefly making the final protein and compound concentrations respectively: 0.5 mg/ml, 0.08 μM (0.4 μM for controls). Plates were sealed, and all plates except the 0-hr plate were incubated at 37° C., shaken at a speed of 60 rpm. A single assay plate was tested at each time point: 0.5 hr, 1 hr, 2 hr, and 4 hr. At each time point, 437.5 μL of pre-cooled internal standard was added each well of the plate to quench the reaction. […] 120 μl supernatant was transferred to a 96-well plate, centrifuged again and analyzed by UPLC-MS (Waters Inc., Milford, MA). The compounds and internal standard were detected by selected ion recording (SIR).
The amount of material was measured as a ratio of peak area to the internal standard and graphed. Using the slope from the initial linear portion of this curve, the degradation rate constant is calculated using equation [1].

Sequence of hERG channel (Q12809 whole entry): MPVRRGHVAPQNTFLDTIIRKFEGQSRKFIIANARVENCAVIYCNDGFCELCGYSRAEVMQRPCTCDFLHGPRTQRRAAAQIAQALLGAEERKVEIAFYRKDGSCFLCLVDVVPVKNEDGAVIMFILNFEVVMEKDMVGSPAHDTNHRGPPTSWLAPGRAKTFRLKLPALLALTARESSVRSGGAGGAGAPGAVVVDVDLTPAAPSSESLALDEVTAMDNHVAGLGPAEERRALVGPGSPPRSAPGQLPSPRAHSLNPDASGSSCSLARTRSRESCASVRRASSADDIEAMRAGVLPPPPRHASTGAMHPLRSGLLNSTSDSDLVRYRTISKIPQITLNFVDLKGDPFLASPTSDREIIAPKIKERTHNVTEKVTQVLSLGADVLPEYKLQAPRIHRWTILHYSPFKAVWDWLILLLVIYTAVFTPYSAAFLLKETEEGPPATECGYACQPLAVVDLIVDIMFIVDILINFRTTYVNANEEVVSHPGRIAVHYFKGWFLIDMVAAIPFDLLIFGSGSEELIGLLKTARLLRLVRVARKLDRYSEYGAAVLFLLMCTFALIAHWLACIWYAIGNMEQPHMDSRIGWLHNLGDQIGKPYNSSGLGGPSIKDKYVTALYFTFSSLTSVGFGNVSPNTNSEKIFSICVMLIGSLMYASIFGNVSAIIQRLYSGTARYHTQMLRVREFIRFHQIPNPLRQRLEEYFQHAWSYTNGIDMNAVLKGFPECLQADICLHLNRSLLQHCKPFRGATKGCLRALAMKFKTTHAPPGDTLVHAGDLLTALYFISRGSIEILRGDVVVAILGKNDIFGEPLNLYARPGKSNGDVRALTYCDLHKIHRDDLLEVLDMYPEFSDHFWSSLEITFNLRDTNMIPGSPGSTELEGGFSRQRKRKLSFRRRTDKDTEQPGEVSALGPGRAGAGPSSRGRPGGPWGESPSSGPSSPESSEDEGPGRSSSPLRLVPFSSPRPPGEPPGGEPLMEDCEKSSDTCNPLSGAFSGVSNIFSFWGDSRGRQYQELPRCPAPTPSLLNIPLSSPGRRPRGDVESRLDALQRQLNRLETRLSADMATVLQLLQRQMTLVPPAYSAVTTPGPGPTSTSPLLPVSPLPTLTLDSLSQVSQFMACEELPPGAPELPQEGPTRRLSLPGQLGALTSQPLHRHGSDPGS

Row | Structure (SMILES) | CLint scaled at 0.08 µM [1] | half-life at 0.08 µM [1] | Ki [2] | Ki [3] | Microsomal stability assays: Half-life [1] | Microsomal stability assays: Clearance [1] | Microsomal stability assays: Half-life [4] | CLint scaled at 0.08 µM [4]
1 | CC(Cc1ccc(-c2cncnc2)cc1)NCCCc1ccc(F)cc1 (stereo not shown) [Compound 196] | 14.7 mL/min/kg | 192 min | 402 ± 72.2 nM | 7.12 ± 1.59 nM | – | – | – | –
2 | CC(Cc1ccccc1)NCCCc1ccc(S)cc1 (stereo not shown) [Compound 216] | 170 mL/min/kg | 18 min | 4190 ± 1080 nM | 65.4 ± 23.4 nM | – | – | – | –
3 | CC(=O)Nc1ccc(CCCNC(C)Cc2ccc(F)cc2)cc1 (stereo not shown) [Compound 66] | 30.7 mL/min/kg | 90 min | 10100 ± 3350 nM | 32.5 ± 3.52 nM | – | – | – | –
4 | CC(Cc1ccc(F)cc1)NCCCc1ccc(I)cc1 (stereo not shown) [Compound 182] | 375 mL/min/kg | – | 512 ± 126 nM | 52.7 ± 6.35 nM | 6 min | – | – | –
5 | FCC(Cc1ccccc1)NCCCc1ccccc1 (stereo not shown) [Compound 98] | > 400 mL/min/kg | < 6 min | 17100 ± 12100 nM | 27.8 ± 5.29 nM | – | – | – | –
6 | CC(Cc1ccccc1)NCCCc1ccc([N+](=O)[O-])cc1 (stereo not shown) [Compound 222] | > 400 mL/min/kg | < 6 min | 96.1 ± 28.3 nM | 4.97 ± 3.08 nM | – | – | – | –
7 | CC(Cc1ccc(C(F)(F)F)cc1)NCCCc1ccc(N)cc1 (stereo not shown) [Compound 54] | – | – | 908 ± 102 nM | 61.8 ± 1.69 nM | – | – | – | –
8 | CC(Cc1ccccc1)NCCCc1ccc(C(F)(F)F)cc1 (stereo not shown) [Compound 194] | 138 mL/min/kg | 18 min | 791 ± 270 nM | 27.7 ± 7.81 nM | – | – | – | –
9 | CC(Cc1ccccc1)NCCCc1ccc(I)cc1 (stereo not shown) [Compound 215] | – | 18 min | 3040 ± 1370 nM | 6.86 ± 1.81 nM | – | 148 mL/min/kg | – | –
10 | OCC(Cc1ccc(F)cc1)NCCCc1ccc(F)cc1 (stereo not shown) [Compound 147] | – | – | 1150 ± 417 nM | 30.1 ± 14.2 nM | – | – | – | –
11 | CC(Cc1ccc(-c2cccnc2)cc1)NCCCc1ccc(F)cc1 (stereo not shown) [Compound 192] | 77.2 mL/min/kg | 36 min | 675 ± 127 nM | 11.9 ± 9.94 nM | – | – | – | –
12 | FCC(Cc1ccc(F)cc1)NCCCc1ccc(F)cc1 (stereo not shown) [Compound 152] | 298 mL/min/kg | 12 min | 5700 ± 2970 nM | 27.3 ± 12.8 nM | – | – | – | –
13 | FCC(Cc1ccc(F)cc1)NCCCc1ccc(Cl)cc1 (stereo not shown) [Compound 150] | 540 mL/min/kg | – | 2340 ± 1070 nM | 39.1 ± 7.97 nM | 6 min | – | – | –
14 | FCC(Cc1ccc(Br)cc1)NCCCc1ccc(F)cc1 (stereo not shown) [Compound 85] | 335 mL/min/kg | – | 1130 ± 711 nM | 35.7 ± 7.32 nM | 6 min | – | – | –
15 | CC(Cc1ccc(NC=O)cc1)N(C=O)CCCc1ccc(F)cc1 (stereo not shown) [Compound 74] | – | – | 831 ± 187 nM | 8.82 ± 2.05 nM | – | – | – | –
16 | COc1ccc(CC(C)NCCCc2ccc(N)cc2)cc1 (stereo not shown) [Compound 57] | – | – | 4250 ± 220 nM | 68.9 ± 13.3 nM | – | – | – | –
17 | CCC(Cc1ccccc1)NCCCc1ccc(O)cc1 (stereo not shown) [Compound 207] | > 400 mL/min/kg | < 6 min | 2380 ± 517 nM | 37.8 ± 6.59 nM | – | – | – | –
18 | CCOC(=O)c1ccc(CCCNC(C)Cc2ccc(F)cc2)cc1 (stereo not shown) [Compound 158] | 120 mL/min/kg | 24 min | 1410 ± 275 nM | 42.8 ± 8.89 nM | – | – | – | –
19 | CC(Cc1ccc(Br)cc1)NCCCc1ccc(I)cc1 (stereo not shown) [Compound 180] | 290 mL/min/kg | 12 min | 601 ± 195 nM | 48.4 ± 19.4 nM | – | – | – | –
20 | CC(Cc1ccc(F)cc1)NCCCc1ccc([N+](=O)[O-])cc1 (stereo not shown) [Compound 160] | 119 mL/min/kg | 24 min | 67.1 ± 14.7 nM | 14.3 ± 2.2 nM | – | – | – | –
21 | CC(Cc1ccc(Cl)cc1)NCCCc1ccc([N+](=O)[O-])cc1 (stereo not shown) [Compound 64] | – | – | 28.8 ± 13.7 nM | 16.4 ± 1.47 nM | – | – | – | –
22 | CC(Cc1ccc(F)c(F)c1)NCCCc1ccncc1 (stereo not shown) [Compound 96] | 96.8 mL/min/kg | 30 min | 4070 ± 734 nM | 78.5 ± 15.8 nM | – | – | – | –

Row | Structure (SMILES) | CLint scaled at 0.08 µM [1] | half-life at 0.08 µM [1] | Ki [2] | Ki [3] | Microsomal stability assays: Half-life [1] | Microsomal stability assays: Clearance [1] | Microsomal stability assays: Half-life [4] | CLint scaled at 0.08 µM [4]
23 | CC(Cc1ccc([N+](=O)[O-])cc1)NCCCc1ccc(Cl)cc1 (stereo not shown) [Compound 125] | – | – | 82 ± 12.7 nM | 8.58 ± 3.71 nM | – | – | – | –
24 | CC(Cc1ccc(F)cc1)NCCCc1ccncc1 (stereo not shown) [Compound 176] | 71.8 mL/min/kg | 42 min | 3770 ± 2.04 nM | 80.7 ± 21 nM | – | – | – | –
25 | CC(Cc1ccc(F)cc1)NCCCc1ccc(N)cc1 (stereo not shown) [Compound 94] | 119 mL/min/kg | 24 min | 3980 ± 3410 nM | 84.6 ± 29.1 nM | – | – | – | –
26 | FCC(Cc1ccc(F)cc1)NCCCc1ccccc1 (stereo not shown) [Compound 100] | – | – | 7390 ± 1360 nM | 51.2 ± 12 nM | – | – | – | –
27 | CC(Cc1ccc(NC=O)cc1)NCCCc1ccc(F)cc1 (stereo not shown) [Compound 90] | – | – | 738 ± 244 nM | 12.7 ± 2.85 nM | 114 min | 24.9 mL/min/kg | – | –
28 | CC(Cc1ccc(NC=O)cc1)NCCCc1ccc(F)cc1 (stereo not shown) [Compound 87] | 13.3 mL/min/kg | 210 min | 738 ± 244 nM | 12.7 ± 2.85 nM | – | – | – | –
29 | CC(Cc1ccccc1)NCCCc1ccc(-c2cccnc2)cc1 (stereo not shown) [Compound 210] | 392 mL/min/kg | – | 3120 ± 251 nM | 55.4 ± 7.94 nM | 6 min | – | – | –
30 | CC(Cc1ccc(C(F)(F)F)cc1)NCCCc1ccc(O)cc1 (stereo not shown) [Compound 209] | – | – | 252 ± 109 nM | 17.1 ± 6.86 nM | – | – | – | –
31 | CC(Cc1ccc(Br)cc1)NCCCc1ccncc1 (stereo not shown) [Compound 174] | 126 mL/min/kg | 24 min | 880 ± 251 nM | 52.1 ± 35.9 nM | – | – | – | –
32 | CC(Cc1ccc(N)cc1)NCCCc1ccc(F)cc1 (stereo not shown) [Compound 110] | < 10 mL/min/kg | > 240 min | 2590 ± 792 nM | 19.2 ± 4.43 nM | – | – | – | –
33 | CC(Cc1ccc(N)cc1)NCCCc1ccc(F)cc1 (stereo not shown) [Compound 111] | – | – | 2500 ± 435 nM | 16.7 ± 3.34 nM | 144 min | 19.5 mL/min/kg | – | –
34 | CC(Cc1ccccc1)NCCCc1ccc(O)cc1 (stereo not shown) [Compound 223] | – | – | 2750 ± 1080 nM | 5.01 ± 1.72 nM | – | – | – | –
35 | CC(Cc1ccc(Br)cc1)NCCCc1ccc(Cl)cc1 (stereo not shown) [Compound 184] | 452 mL/min/kg | – | 196 ± 30.5 nM | 9.06 ± 1.61 nM | 6 min | – | – | –
36 | CC(Cc1ccc(Cl)cc1)NCCCc1ccc(N)cc1 (stereo not shown) [Compound 62] | 83 mL/min/kg | 36 min | 2380 ± 1120 nM | 31.6 ± 4.66 nM | – | – | – | –
37 | CC(Cc1ccc([N+](=O)[O-])cc1)NCCCc1ccc(F)cc1 (stereo not shown) [Compound 119] | – | – | 130 ± 25.6 nM | 9.85 ± 1.62 nM | 24 min | 112 mL/min/kg | – | –
38 | CC(Cc1ccncc1)NCCCc1ccc(O)cc1 (stereo not shown) [Compound 178] | 89.3 mL/min/kg | 30 min | 5070 ± 71.4 nM | 124 ± 29.4 nM | – | – | – | –
39 | CC(Cc1ccc(F)cc1)NCCCc1c[nH]c2ccccc12 (stereo not shown) [Compound 91] | > 400 mL/min/kg | < 6 min | 2200 ± 124 nM | 36.5 ± 5.56 nM | – | – | – | –
40 | CC(Cc1ccc(F)c(F)c1)NCCCc1ccc([N+](=O)[O-])cc1 (stereo not shown) [Compound 59] | – | – | 55.6 ± 7.7 nM | 13.1 ± 2.87 nM | – | – | – | –
41 | CC(Cc1ccccc1)NCCCc1ccc(-c2cncnc2)cc1 (stereo not shown) [Compound 202] | – | – | – | 119 ± 31.8 nM | – | – | 6 min | 155 mL/min/kg
42 | CC(Cc1ccc(F)cc1)NCCCc1ccc(N(C)C)cc1 (stereo not shown) [Compound 156] | – | – | – | 118 ± 25.8 nM | – | – | 6 min | 182 mL/min/kg
43 | COc1ccc(CC(C)NCCCc2ccc([N+](=O)[O-])cc2)cc1 (stereo not shown) [Compound 58] | – | – | 42.3 ± 8.21 nM | 16.6 ± 3.99 nM | – | – | – | –
